Test results as given in PubChem BioAssay AID248 (DTP/NCI, 2004).
Inconclusive results and toxic doses are left out. Rule as the data show it: active = T/C of 150% or more; inactive = T/C below 125%.

System: L1210 leukemia ip in BDF1 mice, survival T/C
Assay: NCI In Vivo Anticancer Drug Screen. Data for tumor model L1210 Leukemia (intraperitoneal) in B6D2F1 (BDF1) mice
Details: endpoint: mean survival time, higher = longer survival
Method in brief: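 Transplanted-tumor mice were given test agent; controls received vehicle only. Survival readings from the two groups were divided (treated over control).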

[1] = dose: 100.0 mg/kg/injection, schedule: Q01DX001 (ip), vehicle: saline
[2] = dose: 100.0 mg/kg/injection, schedule: Q04DX003 (ip), vehicle: Klucel (hydroxypropylcellulose) (HPC)
[3] = dose: 200.0 mg/kg/injection, schedule: Q04DX003 (ip), vehicle: Klucel (hydroxypropylcellulose) (HPC)
[4] = dose: 100.0 mg/kg/injection, schedule: Q04DX003 (sc), vehicle: olive oil, sesame oil, peanut oil
[5] = dose: 200.0 mg/kg/injection, schedule: Q04DX003 (sc), vehicle: olive oil, sesame oil, peanut oil
[6] = dose: 400.0 mg/kg/injection, schedule: Q04DX003 (sc), vehicle: olive oil, sesame oil, peanut oil
[7] = dose: 100.0 mg/kg/injection, schedule: Q04DX003 (ip), vehicle: saline with Tween-80
[8] = dose: 200.0 mg/kg/injection, schedule: Q04DX003 (ip), vehicle: saline with Tween-80
[9] = dose: 400.0 mg/kg/injection, schedule: Q04DX003 (ip), vehicle: saline with Tween-80
[10] = dose: 6.25 mg/kg/injection, schedule: Q01DX009 (ip), vehicle: saline with Tween-80
[11] = dose: 12.5 mg/kg/injection, schedule: Q01DX009 (ip), vehicle: saline with Tween-80
[12] = dose: 25.0 mg/kg/injection, schedule: Q01DX009 (ip), vehicle: saline with Tween-80
[13] = dose: 100.0 mg/kg/injection, schedule: Q04DX003 (ip), vehicle: saline
[14] = dose: 200.0 mg/kg/injection, schedule: Q04DX003 (ip), vehicle: saline
[15] = dose: 400.0 mg/kg/injection, schedule: Q04DX003 (ip), vehicle: saline
[16] = dose: 400.0 mg/kg/injection, schedule: Q04DX003 (ip), vehicle: Klucel (hydroxypropylcellulose) (HPC)
[17] = dose: 75.0 mg/kg/injection, schedule: Q01DX001 (ip), vehicle: saline

Measured: T/C

NN=O
inactive: [1] 97 % of control | dose: 200.0 mg/kg/injection, schedule: Q01DX001 (ip), vehicle: saline 101 % of control

CCOC(=O)COc1c(C)cccc1Cl
inactive: dose: 100.0 mg/kg/injection, schedule: Q04DX002 (ip), vehicle: saline with Tween-80 111 % of control | dose: 200.0 mg/kg/injection, schedule: Q04DX002 (ip), vehicle: saline with Tween-80 114 % of control

Cc1ccc(N=CNN=C(N)N)cc1
inactive: dose: 120.0 mg/kg/injection, schedule: Q01DX Z (oral), vehicle: methylcellulose (MC) 97 % of control | dose: 240.0 mg/kg/injection, schedule: Q01DX Z (ip), vehicle: methylcellulose (MC) 101 % of control | dose: 240.0 mg/kg/injection, schedule: Q01DX Z (oral), vehicle: methylcellulose (MC) 96 % of control | dose: 360.0 mg/kg/injection, schedule: Q01DX Z (ip), vehicle: methylcellulose (MC) 104 % of control | dose: 480.0 mg/kg/injection, schedule: Q01DX Z (ip), vehicle: methylcellulose (MC) 102 % of control | dose: 480.0 mg/kg/injection, schedule: Q01DX Z (oral), vehicle: methylcellulose (MC) 92 % of control

CC(C)(C)C1CCC(OC=O)CC1 (stereo not given)
inactive: [2] 92 % of control | [3] 93 % of control

O=C(OC(=O)c1ccc([N+](=O)[O-])cc1)c1ccc([N+](=O)[O-])cc1
inactive: dose: 100.0 mg/kg/injection, schedule: Q01DX009 (sc), vehicle: olive oil, sesame oil, peanut oil 104 % of control | [4] 98 % of control | dose: 200.0 mg/kg/injection, schedule: Q01DX009 (sc), vehicle: olive oil, sesame oil, peanut oil 106 % of control | [5] 98 % of control | dose: 400.0 mg/kg/injection, schedule: Q01DX009 (sc), vehicle: olive oil, sesame oil, peanut oil 118 % of control | [6] 101 % of control

Cn1cnc(N)c1C(=N)[Se]
inactive: dose: 6.25 mg/kg/injection, schedule: Q01DX009 (ip), vehicle: water 86 % of control | dose: 12.5 mg/kg/injection, schedule: Q04DX003 (ip), vehicle: water 108 % of control | dose: 25.0 mg/kg/injection, schedule: Q04DX003 (ip), vehicle: water 95 % of control

Nc1ccc2ccccc2c1S(=O)(=O)O
inactive: [7] 98 % of control | [8] 95 % of control | [9] 98 % of control

COP(=O)(NNc1cc(Cl)ccc1Cl)OC
inactive: [7] 104 % of control | [8] 106 % of control | [9] 101 % of control

N#CC(C#N)=Cc1ccc2ccccc2c1Br
inactive: dose: 100.0 mg/kg/injection, schedule: Q01DX009 (ip), vehicle: saline with Tween-80 96 % of control | dose: 200.0 mg/kg/injection, schedule: Q01DX009 (ip), vehicle: saline with Tween-80 94 % of control | dose: 400.0 mg/kg/injection, schedule: Q01DX009 (ip), vehicle: saline with Tween-80 90 % of control

c1cc2c(cc1NC1=NCCO1)CCC2
inactive: [10] 107 % of control | [11] 95 % of control | [12] 114 % of control

COC(=O)c1ccccc1N1C(=O)C=CC1=O
inactive: [10] 97 % of control | [11] 98 % of control | [12] 103 % of control

COC(=O)C1C(O)C(C)C(O)OC1C(C)C(O)C(C)/C=C\C=C(/C)C(=O)Nc1c(C)c(OC(C)=O)c2c(c1O)C(=O)C(C)=C1OCOC(/C(C)=C/C(C)=O)=C12 (stereo not given)
inactive: [13] 95 % of control | [14] 102 % of control | [15] 93 % of control

COc1ccc(OC)c(NC(=O)Nc2cc(C)ccc2OC)c1
inactive: [2] 95 % of control | [3] 92 % of control | [16] 97 % of control

CC1(C)C2CCC1(C)C(OCC(=O)O)C2 (stereo not given)
inactive: dose: 100.0 mg/kg/injection, schedule: Q04DX002 (ip), vehicle: Klucel (hydroxypropylcellulose) (HPC) 96 % of control | dose: 200.0 mg/kg/injection, schedule: Q04DX002 (ip), vehicle: Klucel (hydroxypropylcellulose) (HPC) 121 % of control | dose: 400.0 mg/kg/injection, schedule: Q04DX002 (ip), vehicle: Klucel (hydroxypropylcellulose) (HPC) 102 % of control

N#[N+]c1ccc(Br)cc1-c1nc(N)nc(N)n1
inactive: dose: 12.5 mg/kg/injection, schedule: Q01DX009 (ip), vehicle: saline 92 % of control | dose: 25.0 mg/kg/injection, schedule: Q01DX009 (ip), vehicle: saline 101 % of control | dose: 25.0 mg/kg/injection, schedule: Q04DX003 (ip), vehicle: saline 113 % of control | dose: 50.0 mg/kg/injection, schedule: Q01DX009 (ip), vehicle: saline 100 % of control | dose: 50.0 mg/kg/injection, schedule: Q04DX003 (ip), vehicle: saline 98 % of control | [1] 104 % of control

CC(C)C(=O)c1ccc(Cl)s1
inactive: [4] 104 % of control | [5] 107 % of control | [6] 96 % of control

CCCCCCCC/C=C/CCCCCCCCC1=NCCN1CCO
inactive: dose: 2.5 mg/kg/injection, schedule: Q01DX009 (ip), vehicle: saline 104 % of control | dose: 5.0 mg/kg/injection, schedule: Q01DX009 (ip), vehicle: saline 93 % of control | dose: 10.0 mg/kg/injection, schedule: Q01DX001 (ip), vehicle: saline 90 % of control | dose: 10.0 mg/kg/injection, schedule: Q01DX009 (ip), vehicle: saline 104 % of control | dose: 20.0 mg/kg/injection, schedule: Q01DX001 (ip), vehicle: saline 92 % of control

Cn1nc(NN)c2cccnc21
inactive: dose: 75.0 mg/kg/injection, schedule: Q01DX001 (ip), vehicle: other 103 % of control | dose: 150.0 mg/kg/injection, schedule: Q01DX001 (ip), vehicle: other 104 % of control

CCOC(=O)C1CCC(=O)N1 (stereo not given)
inactive: [2] 96 % of control | [3] 98 % of control | [16] 98 % of control

CC=C=[CH][Sn]([CH2]CC)([CH2]CC)[CH2]CC
inactive: [17] 91 % of control

O=C(C1OC1c1ccccc1)C1OC1c1ccccc1 (stereo not given)
inactive: dose: 100.0 mg/kg/injection, schedule: Q01DX009 (ip), vehicle: Klucel (hydroxypropylcellulose) (HPC) 98 % of control | dose: 200.0 mg/kg/injection, schedule: Q01DX009 (ip), vehicle: Klucel (hydroxypropylcellulose) (HPC) 101 % of control | dose: 400.0 mg/kg/injection, schedule: Q01DX009 (ip), vehicle: Klucel (hydroxypropylcellulose) (HPC) 95 % of control

C[N+](C)(C)CC1C2C=CC(C2)C1CO (stereo not given)
inactive: [13] 110 % of control | [14] 107 % of control | [15] 100 % of control

CC(=O)NO
inactive: dose: 100.0 mg/kg/injection, schedule: Q04DX002 (ip), vehicle: saline 102 % of control | dose: 200.0 mg/kg/injection, schedule: Q04DX002 (ip), vehicle: saline 112 % of control | dose: 400.0 mg/kg/injection, schedule: Q04DX002 (ip), vehicle: saline 108 % of control

C[N+](C)(C)C1C2(CCCCC2)NC(=O)C12CCCCC2 (stereo not given)
inactive: [17] 96 % of control
